# Laboratory results as given in patent publication US8962660B2 (Bristol-Myers Squibb Company, priority 2013, dated 2015).
# Molecular target: T1, human GPR120 (Homo sapiens, UniProt Q5NUL3)
# T1 construct: expressed in transfected cells; host or cells: CHOA12 cells
# T1 sequence (Q5NUL3 1-361): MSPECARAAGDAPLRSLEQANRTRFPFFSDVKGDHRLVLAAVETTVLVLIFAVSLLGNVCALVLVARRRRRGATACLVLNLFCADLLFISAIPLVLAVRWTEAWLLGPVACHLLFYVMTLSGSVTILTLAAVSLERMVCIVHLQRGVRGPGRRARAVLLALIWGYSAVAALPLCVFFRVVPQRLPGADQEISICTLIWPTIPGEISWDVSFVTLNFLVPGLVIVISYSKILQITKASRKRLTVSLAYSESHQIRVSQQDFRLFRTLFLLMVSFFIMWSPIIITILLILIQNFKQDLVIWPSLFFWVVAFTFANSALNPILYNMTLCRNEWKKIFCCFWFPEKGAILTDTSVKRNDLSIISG
# Assay: GPR120 pERK AlphaScreen SureFire assay (human)
# Type: cell-based
# Settings: CHO cells stably transfected with short form of human GPR120
# Source text: GPR120 activity was monitored by measuring phosphorylation of ERK (pERK), since G protein receptors are known to activate the ERK signaling cascade either directly and/or through recruitment of arrestin that serves as a scaffold for downstream signaling events.
# GPR120 pERK AlphaScreen SureFire Assay
# The human and mouse GPR120-mediated intracellular phosphorylated ERK assays were established using CHOA12 cells stably transfected with the short form of human or mouse GPR120 receptor. Cells were cultured in growth medium consisting of F-12 media (Invitrogen Cat. #11765) with 5% Charcoal/Dextran FBS (Invitrogen Cat. #12676-029), 500 μg/mL GENETICIN® (Life Technologies Cat. #10131-027) and 250 μg/mL Zeocin (Invitrogen Cat. #R250-01). Cells were cryo preserved at a concentration of 2×10^7 cells/mL, in 90% Charcoal/Dextran FBS and 10% DMSO, and frozen in liquid nitrogen at a low passage number.
# For the pERK assay, 2×10^7 cells/mL cryopreserved human and mouse cells were thawed rapidly in a 37° C. water bath and added to a T-225 flask containing 50 mL growth medium. The flasks were placed in a tissue culture incubator overnight (37° C., 5% CO2). The next day, cells were harvested with trypsin (Gibco Cat. #25300-054), resuspended in serum-containing growth medium and counted using a Cellometer and volume adjusted to a concentration of 0.6×10^6cells/mL. Cells were plated into 384-well clear bottom tissue culture plates (BD Cat. #353962) at 50 μL/well, for a density of 30,000 cells/well using a MULTIDROP® and incubated for 16-18 hours (overnight) at 37° C. with 5% CO2. The next day, cells were serum starved in 30 μL of F-12 media without any serum or antibiotics for 2 hours at 37° C.
# Test compounds were 3-fold, 11-point serially diluted in DMSO in a REMP assay plate (Matrix Cat. #4307) by Tecan and 5 μL was transferred into an ECHO source plate (LABCYTE® Cat. #LC-0200). Cells were then stimulated with 50 nL of compound dilutions using ECHO liquid handler for 7 minutes at 37° C. Compounds ranged from final assay concentrations of 33.33 μM to 0.56 nM.
# The media was then dumped and cells lysed with 20 μL of 1× Lysis buffer from the AlphaScreen SureFire Phospho-ERK 1/2 Kit (Perkin Elmer Cat. #6760617M). The lysis buffer was diluted 5-fold with water before use. The plate was agitated on a shaker for 10 minutes after which 2 μL was transferred into a 384-well white proxiplate (Perkin Elmer Cat. #6008289). The SureFire assay reagent mix was prepared by mixing 60 parts Reaction Buffer, 10 parts Activation Buffer, 1 part Donor Beads, 1 part Acceptor Beads (Perkin Elmer Cat. #TGRES10K). 3.5 μL/well of this reagent mix was manually added to the proxiplate with a multichannel pipettor. Plates were spun down at 1000 rpm for 2 minutes, followed by light-protected incubation at room temperature for 2 hours. The plates were read on the Alpha-technology compatible Envision multilabel plate reader using AlphaScreen protocol according to manufacturer's specifications. The agonist effect of compounds was expressed as 100×(average sample−average blank)/(average total−average blank) where sample is the luminescence activity in the presence of test compound, blank is equal to the luminescence activity in the presence of DMSO control and the total is signal induced by 50 μM linolenic acid as reference compound. Activation data for the test compound over a range of concentrations was plotted as percentage activation of the test compound (100%=maximum response). After correcting for background, EC50 values were determined The EC50 is defined as the concentration of test compound which produces 50% of the maximal response and was quantified using the 4 parameter logistic equation to fit the data.
# The human and mouse GPR120-mediated intracellular phosphorylated ERK assays were also established using CHO-K1 cells stably transfected with the short form of human or mouse GPR120 receptor. […]
row,Compound,EC50
1,"C=C(C)COc1cccc(C23CCC(CCOCC(=O)O)(CC2)CO3)c1 [Example 19, 2-(2-(1-(3-(2-Methylallyloxy)phenyl)-2-oxabicyclo[2.2.2]octan-4-yl)ethoxy)acetic acid]",1980 nM
2,"O=C(O)C[C@@H]1C[C@H]1CC12CCC(c3cccc(Oc4ccccc4)c3)(CC1)OC2 (single isomer, unassigned) [Example 18]",410 nM
3,"O=C(O)C1CC1CCC12CCC(c3cc(F)cc(Oc4ccccc4)c3)(CC1)OC2 (single isomer, unassigned) [Example 63, 2-(2-(1-(3-Fluoro-5-phenoxyphenyl)-2-oxabicyclo[2.2.2]octan-4-yl)ethyl)cyclopropanecarboxylic acid]",370 nM
4,"O=C(O)C1CC1COC12CCC(c3cccc(Oc4ccccc4)c3)(CC1)OC2 (centres unmarked) [Example 96, 2-(((1-(3-Phenoxyphenyl)-2-oxabicyclo[2.2.2]octan-4-yl)oxy)methyl) cyclopropanecarboxylic acid]",1680 nM
5,"O=C(O)[C@@H]1C[C@H]1COCC12CCC(c3cccc(Oc4ccccc4)c3)(CC1)OC2 (single isomer, unassigned) [Example 98]",1020 nM
6,"O=C(O)COCCC12CCC(c3cccc(OS(=O)(=O)C(F)(F)F)c3)(CC1)OC2 [Example 47, 2-(2-(1-(3-(Trifluoromethylsulfonyloxy)phenyl)-2-oxabicyclo[2.2.2]octan-4-yl)ethoxy)acetic acid]",1030 nM
7,"O=C(O)COCCC12CCC(c3cccc(C4=CCCC4)c3)(CC1)OC2 [Example 24, 2-(2-(1-(3-Cyclopentenylphenyl)-2-oxabicyclo[2.2.2]octan-4-yl)ethoxy)acetic acid]",800 nM
8,"CC(C)COc1cccc(C23CCC(CCOCC(=O)O)(CC2)CO3)c1 [Example 9, 2-(2-(1-(3-Isobutoxyphenyl)-2-oxabicyclo[2.2.2]octan-4-yl)ethoxy)acetic acid]",1280 nM
9,"O=C(O)COCCC12CCC(c3cccc(Cc4ccccc4)c3)(CC1)OC2 [Example 50, 2-(2-(1-(3-Benzylphenyl)-2-oxabicyclo[2.2.2]octan-4-yl)ethoxy)acetic acid]",1360 nM
10,"Cc1ccc(Oc2cc(F)cc(C34CCC(CCOCC(=O)NO)(CC3)CO4)c2)cc1F [Example 94, 2-(2-(1-(3-Fluoro-5-(3-fluoro-4-methylphenoxy)phenyl)-2-oxabicyclo[2.2.2]octan-4-yl)ethoxy)-N-hydroxyacetamide]",1160 nM
11,"O=C(O)CCS(=O)(=O)CC12CCC(c3cccc(Oc4ccccc4)c3)(CC1)OC2 [Example 29, 3-((1-(3-Phenoxyphenyl)-2-oxabicyclo[2.2.2]octan-4-yl)methylsulfonyl)propanoic acid]",1570 nM
12,"OCC(O)CCCC12CCC(c3cccc(Oc4ccccc4)c3)(CC1)OC2 (single isomer, unassigned) [Example 59, S-5-(1-(3-Phenoxyphenyl)-2-oxabicyclo[2.2.2]octan-4-yl)pentane-1,2-diol]",360 nM
13,"COc1cccc(Oc2cc(F)cc(C34CCC(CCOCC(=O)O)(CC3)CO4)c2)c1 [Example 82, 2-(2-(1-(3-fluoro-5-(3-methoxyphenoxy)phenyl)-2-oxabicyclo[2.2.2]octan-4-yl)ethoxy)acetic acid]",810 nM
14,COc1cccc(Oc2cccc(C34CCC(CCOCC(=O)O)(CC3)OC4)c2)c1 [Example 102],660 nM
15,"COc1cc(Oc2ccc(F)c(F)c2)cc(C23CCC(CCOCC(=O)O)(CC2)CO3)c1 [Example 91, 2-(2-(1-(3-(3,4-difluorophenoxy)-5-methoxyphenyl)-2-oxabicyclo[2.2.2]octan-4-yl)ethoxy)acetic acid]",630 nM

# Second part, the molecule after the results:
row,EC50,Compound
1,720 nM,"O=C(NCc1ncn[nH]1)[C@H]1C[C@@H]1CCC12CCC(c3cccc(Oc4ccccc4)c3)(CC1)OC2 (single isomer, unassigned) [Example 68, N-((1H-1,2,4-Triazol-5-yl)methyl)-2-(2-(1-(3-phenoxyphenyl)-2-oxabicyclo[2.2.2]octan-4-yl)ethyl)cyclopropanecarboxamide]"
2,140 nM,"O=C(O)CCOCC12CCC(c3cccc(Oc4ccccc4)c3)(CC1)CO2 [Example 30, 3-((4-(3-Phenoxyphenyl)-2-oxabicyclo[2.2.2]octan-1-yl)methoxy)propanoic acid]"
3,260 nM,"O=C(O)C[C@H]1C[C@@H]1CC12CCC(c3cccc(Oc4ccccc4)c3)(CC1)OC2 (single isomer, unassigned) [Example 17]"
4,1600 nM,"CCc1cccc(Oc2cccc(C34CCC(CCOCC(=O)O)(CC3)CO4)c2)c1 [Example 119, 2-(2-(1-(3-(3-Ethylphenoxy)phenyl)-2-oxabicyclo[2.2.2]octan-4-yl)ethoxy)acetic acid]"
5,1980 nM,"O=C(O)COC(=O)NCC12CCC(c3cccc(Oc4ccccc4)c3)(CC1)OC2 [Example 28, 2-((1-(3-Phenoxyphenyl)-2-oxabicyclo[2.2.2]octan-4-yl)methylcarbamoyloxy)acetic acid]"
6,320 nM,"Cc1ccc(Oc2cc(F)cc(C34CCC(CCOCC(=O)O)(CC3)CO4)c2)cc1 [Example 83, 2-(2-(1-(3-fluoro-5-(p-tolyloxy)phenyl)-2-oxabicyclo[2.2.2]octan-4-yl)ethoxy)acetic acid]"
7,4340 nM,"O=C(O)COCCC12CCC(c3cccc(OCC4CCCCC4)c3)(CC1)OC2 [Example 52, 2-(2-(1-(3-(Cyclohexylmethoxy)phenyl)-2-oxabicyclo[2.2.2]octan-4-yl)ethoxy)acetic acid]"
8,520 nM,"Cc1cc(Oc2cc(F)cc(C34CCC(CCOCC(=O)O)(CC3)CO4)c2)ccc1F [Example 81, 2-(2-(1-(3-fluoro-5-(4-fluoro-3-methylphenoxy)phenyl)-2-oxabicyclo [2.2.2]octan-4-yl)ethoxy) acetic acid]"
9,270 nM,Cc1ccc(Oc2cc(C34CCC(CCOCC(=O)O)(CC3)OC4)ccc2F)cc1F [Example 112]
10,640 nM,"O=C(O)COCCC12CCC(c3cccc(OC4CCCCC4)c3)(CC1)CO2 [Example 111, 2-(2-(4-(3-(Cyclohexyloxy)phenyl)-2-oxabicyclo[2.2.2]octan-1-yl)ethoxy) acetic acid]"
11,1090 nM,"O=C(O)COCCC12CCC(c3cccc(OCC4CCC4)c3)(CC1)OC2 [Example 51, 2-(2-(1-(3-(Cyclobutylmethoxy)phenyl)-2-oxabicyclo[2.2.2]octan-4-yl)ethoxy)acetic acid]"
12,750 nM,"COc1cccc(Oc2cccc(C34CCC(CC[C@@H]5C[C@H]5C(=O)O)(CC3)CO4)c2)c1 (single isomer, unassigned) [Example 67, 2-(2-(1-(3-(3-Methoxyphenoxy)phenyl)-2-oxabicyclo[2.2.2]octan-4-yl)ethyl)cyclopropanecarboxylic acid]"
13,480 nM,"O=C(O)[C@@H]1C[C@H]1CCC12CCC(c3cccc(Oc4ccccc4)c3)(CC1)OC2 (single isomer, unassigned) [Example 15]"
14,860 nM,Cc1ccc(Oc2cc(C34CCC(CCOCC(=O)O)(CC3)OC4)ccc2F)cc1C [Example 113]
